Reference: patent US12258360B2, “Compositions and methods for treatment of anticancer-drug resistant cancers” (THE GEORGE WASHINGTON UNIVERSITY, priority 2020, dated 2025)

Test system: IGROV1 CR xenograft
Type: in vivo, mice
Method: To evaluate the potency of And-1 inhibitors in vivo, IGROV1 or MCF7 cells were subcutaneously implanted into nude mice to form ovarian or breast tumors, respectively. In brief, 5-6 week-old female BALB/c athymic nude mice (CByJ.Cg-Foxn1nu/J, weighting 20-25 grams) were inoculated subcutaneously by injecting the OC cells, cisplatin resistant OC cells or breast cancer cells suspended in 100 μl ice-cold Matrigel/PBS (1:1, V:V; 5×10^6/mouse) into the dorsal flank of each mouse. When the average tumor volume reached 100-150 mm^3, the mice were randomized into subsequent experiment groups. For tumors treated with CH3 only, CH3 was given at 0 mg/kg, 20 mg/kg and 40 mg/kg via intraperitoneal injection twice a week for three weeks. […] The relative tumor volumes were calculated using the formula: a×(b^2)/2, for which a and b represented the longest and shortest diameters, respectively. During the drug treatment, the tumor volume and body weight were measured. Tumor samples were collected 4 days after final administration of the drug.
To assess the efficacy of combination therapy with And-1 inhibitor and cisplatin in vivo, an IGROV1 CR xenograft was treated with vehicle, And-1 inhibitors, cisplatin or combination of cisplatin and And-1 inhibitor via intraperitoneal injection.

OB1OCc2cc(/C=C/c3ccc(Cl)c(Cl)c3)ccc21 [CH3]
And-1 expression in tumor samples (IHC) (IGROV1 CR xenograft): suppressed expression of And-1
tumor growth, combination with cisplatin vs cisplatin alone (IGROV1 CR xenograft, cisplatin 8 mg/kg, CH3 20 mg/kg, BZA 2 mg/kg intraperitoneally, three weeks): excellent synergy in reducing tumor growth
systemic toxicity of combination with cisplatin (body weight, H&E staining) (mouse, in vivo): no obvious systemic toxicity or side effect
